The values below come from patent US8658568B2, “6-amino-2-substituted-5-vinylsilylpyrimidine-4-carboxylic acids and esters and 4-amino-6-substituted-3-vinylsilylpyridine-2-carboxylic acids and esters as herbicides” (Dow AgroSciences, LLC., priority 2011, dated 2014).

Data set [1] concerns ABUTH = velvetleaf (Abutilon theophrasti). Put plainly: Postemergence herbicidal activity, velvetleaf. The note with it: post-emergence, 336 h, post-emergent, rate 140 g ai/ha, visual score after 14 days (0 no injury, 100 complete kill), read-out: % Growth Reduction ABUTH. The data set is classed as in vivo. The method, then:
(§1) Evaluation of Postemergence Herbicidal Activity
(§2) Seeds or nutlets of the desired test plant species were planted in Sun Gro MetroMix® 306 planting mixture, which typically has a pH of 6.0 to 6.8 and an organic matter content of about 30 percent, in plastic pots with a surface area of 64 square centimeters. When required to ensure good germination and healthy plants, a fungicide treatment and/or other chemical or physical treatment was applied. The plants were grown for 7-21 days in a greenhouse with an approximate 15 hour photoperiod which was maintained at about 23-29° C. during the day and 22-28° C. during the night. Nutrients and water were added on a regular basis and supplemental lighting was provided with overhead metal halide 1000-Watt lamps as necessary. The plants were employed for testing when they reached the first or second true leaf stage.
(§3) A weighed amount, determined by the highest rate to be tested, of each test compound was placed in a 25 mL glass vial and was dissolved in 4 mL of a 97:3 v/v (volume/volume) mixture of acetone and dimethyl sulfoxide (DMSO) to obtain concentrated stock solutions. […] The concentrated stock solutions obtained were diluted with 20 mL of an aqueous mixture containing acetone, water, isopropyl alcohol, DMSO, Atplus 411F crop oil concentrate, and Triton® X-155 surfactant in a 48.5:39:10:1.5:1.0:0.02 v/v ratio to obtain spray solutions containing the highest application rates. Additional application rates were obtained by serial dilution of 12 mL of the high rate solution into a solution containing 2 mL of 97:3 (v/v) mixture of acetone and dimethyl sulfoxide (DMSO) and 10 mL of an aqueous mixture containing acetone, water, isopropyl alcohol, DMSO, Atplus 411F crop oil concentrate, and Triton X-155 surfactant in a 48.5:39:10:1.5:1.0:0.02 (v/v) ratio to obtain 1/2 ×, 1/4 ×, 1/8× and 1/16× rates of the high rate. Compound requirements are based upon a 12 mL application volume at a rate of 187 L/ha. Formulated compounds were applied to the plant material with an overhead Mandel track sprayer equipped with a 8002E nozzles calibrated to deliver 187 L/ha over an application area of 0.503 square meters at a spray height of 18 inches (43 cm) above the average plant canopy height. Control plants were sprayed in the same manner with the solvent blank.
(§4) The treated plants and control plants were placed in a greenhouse as described above and watered by sub-irrigation to prevent wash-off of the test compounds. After 14 days, the condition of the test plants as compared with that of the untreated plants was determined visually and scored on a scale of 0 to 100 percent where 0 corresponds to no injury and 100 corresponds to complete kill
(§5) By applying the well-accepted probit analysis as described by J. Berkson in Journal of the […], 48, 565 (1953) and by D. Finney in “Probit Analysis” Cambridge University Press (1952), the above data can be used to calculate GR50 and GR80 values, which are defined as growth reduction factors that correspond to the effective dose of herbicide required to kill or control 50 percent or 80 percent, respectively, of a target plant.

The test system of data set [2] is HELAN = sunflower (Helianthus annuus). Put plainly: Postemergence herbicidal activity, sunflower. The class given is in vivo. The note with it: post-emergence, 336 h, post-emergent, rate 140 g ai/ha, visual score after 14 days (0 no injury, 100 complete kill), read-out: % Growth Reduction HELAN. The protocol:
as §1, §2, §3, §4, §5

Data set [3] deals with AMARE = redroot pigweed (Amaranthus retroflexus). Nature of the data set: Postemergence herbicidal activity, redroot pigweed. The class given is in vivo. The note with it: post-emergence, 336 h, post-emergent, rate 140 g ai/ha, visual score after 14 days (0 no injury, 100 complete kill), read-out: % Growth Reduction AMARE. The protocol: as §1, §2, §3, §4, §5
For data set [4], the system named is ECHCG = barnyardgrass (Echinochloa crus-galli). Nature of the data set: Postemergence herbicidal activity, barnyardgrass. The data set is classed as in vivo. The note with it: post-emergence, 336 h, post-emergent, rate 140 g ai/ha, visual score after 14 days (0 no injury, 100 complete kill), read-out: % Growth Reduction ECHCG. The protocol: as §1, §2, §3, §4, §5

In data set [5] the test system is EPHHL = wild poinsettia (Euphorbia heterophylla). Nature of the data set: Postemergence herbicidal activity, wild poinsettia. The class given is in vivo. The note with it: post-emergence, 336 h, post-emergent, rate 140 g ai/ha, visual score after 14 days (0 no injury, 100 complete kill), read-out: % Growth Reduction EPHHL. The protocol: as §1, §2, §3, §4, §5
Data set [6] relates to IPOHE = ivyleaf morningglory (Ipomoea hederacea). Put plainly: Postemergence herbicidal activity, ivyleaf morningglory. The class given is in vivo. The note with it: post-emergence, 336 h, post-emergent, rate 140 g ai/ha, visual score after 14 days (0 no injury, 100 complete kill), read-out: % Growth Reduction IPOHE. The protocol:
as §1, §2, §3, §4, §5

The subject of data set [7] is CHEAL = lambsquarters (Chenopodium album). Nature of the data set: Postemergence herbicidal activity, lambsquarters. The note with it: post-emergence, 336 h, post-emergent, rate 140 g ai/ha, visual score after 14 days (0 no injury, 100 complete kill), read-out: % Growth Reduction CHEAL. The data set is classed as in vivo. The method, then: as §1, §2, §3, §4, §5

What is called melting point is the temperature, or range, at which the solid turns liquid. `COC(=O)c1nc(-c2ccc(Cl)c(OC)c2F)nc(N)c1/C=C/[Si](C)(C)C` [Compound 2, (E)-methyl 6-amino-2-(4-chloro-2-fluoro-3-methoxyphenyl)-5-(2-(trimethylsilyl)vinyl)-pyrimidine-4-carboxylate] yielded a melting point of 161 to 163 °C. Further, the pest or weed control at 140 g/ha in data set [1] turned out to be 98%. In data set [2], the pest or weed control at 140 g/ha stood at 100%. Besides, in data set [3], the pest or weed control at 140 g/ha came out at 100%. In addition, the pest or weed control at 140 g/ha in data set [4] stood at 98%. The pest or weed control at 140 g/ha in data set [5] is 100%. Moreover, in data set [6], the pest or weed control at 140 g/ha came out at 90%.
As for `COc1c(Cl)ccc(-c2nc(N)c(/C=C/[Si](C)(C)C)c(C(=O)O)n2)c1F` [Compound 6, (E)-6-amino-2-(4-chloro-2-fluoro-3-methoxyphenyl)-5-(2-(trimethylsilyl)vinyl)pyrimidine-4-carboxylicacid], the melting point is 108 to 110 °C. Moreover, the pest or weed control at 140 g/ha in data set [1] was 100%. Moreover, in data set [7], the pest or weed control at 140 g/ha turned out to be 100%. Further, the pest or weed control at 140 g/ha in data set [2] turned out to be 100%. Besides, the pest or weed control at 140 g/ha in data set [3] is 100%. For the same compound, the pest or weed control at 140 g/ha in data set [4] turned out to be 100%. Also, the pest or weed control at 140 g/ha in data set [5] amounted to 100%. In data set [6], the pest or weed control at 140 g/ha turned out to be 95%.
In the case of `COC(=O)c1nc(-c2ccc(Cl)cc2)c(F)c(N)c1/C=C/[Si](C)(C)C` [Compound 12, (E)-Methyl 4-amino-6-(4-chlorophenyl)-5-fluoro-3-(2-(trimethylsilyl)vinyl)picolinate], the melting point is 113 to 115 °C. The pest or weed control at 140 g/ha in data set [1] worked out at 90%. In data set [7], the pest or weed control at 140 g/ha was 100%. Besides, in data set [2], the pest or weed control at 140 g/ha is 90%. For the same compound, in data set [3], the pest or weed control at 140 g/ha was found to be 75%. In addition, the pest or weed control at 140 g/ha in data set [4] worked out at 0%. In data set [5], the pest or weed control at 140 g/ha came to 80%. The pest or weed control at 140 g/ha in data set [6] turned out to be 0%.
For the compound `C[Si](C)(C)/C=C/c1c(C(=O)O)nc(-c2ccc(Cl)cc2)c(F)c1N` [Compound 15, (E)-4-amino-6-(4-chlorophenyl)-5-fluoro-3-(2-(trimethylsilyl)vinyl)picolinic acid], the pest or weed control at 140 g/ha worked out at 80% in data set [1]; 90% in data set [7]; 90% in data set [2]; 100% in data set [3]; 80% in data set [4]; 90% in data set [5]. Moreover, the pest or weed control at 140 g/ha in data set [6] was 70%.
